{"source": "patent EP3050567B1", "about": "“COMPOUND FOR ACTIVATING AMPK AND USES THEREOF” (Energenesis Biomedical Co., Ltd., priority 2013, dated 2015)", "key": {"Aβ infusion mice": {"test_system": "Aβ infusion mice", "assay": "Aβ-induced Alzheimer's disease model mice, Morris water maze assay", "type": "in vivo, C57BL/6J mice", "conditions": "AD mice, daily IP adenine 0.01, 0.1, 5 or 30 mg/kg for 4 weeks, vs control AD mice", "method": "Aβ25-35 was purchased from Sigma-Aldrich (St. Louis, Missouri). The peptides were dissolved in distilled saline and aggregated by incubation at 37°C for 7 days before injection. C57BL/6J mice were maintained at 22° C under a 12-h light/dark cycle. Adult mice were anesthetized by ketamine (500 mg/kg) and xylazine (100 mg/kg) and placed in a stereotaxic frame. Five nmol of the aggregated Aβ25-35 were injected into the lateral ventricle using a 10 µl Hamilton syringe. The target anterior-posterior (AP), medial-lateral (ML) and dorsoventral coordinates were -0.5 mm, ±1 mm and -2.5 mm relative to the bregma. To evaluate the effect of adenine on neurodegenerative disease, Aβ infusion mice were daily intraperitoneally injected with 0.01, 0.1, 5 or 30 mg/kg bodyweight of adenine or vehicle for 4 weeks. The cognitive functions of these mice were analyzed by using Morris water maze assay after 4 weeks injection. The water maze was performed in a circular pool filled with water and a platform was submerged below the water's surface in the target quadrant for hidden platform test. During the 5-day hidden platform test, mice were randomly placed into starting points of the pool in each daily trial (6 trials per day). […] Mice were allowed to swim in the maze for 60 s and recorded by a video camera. The latency to find the platform and swim paths was analyzed by software."}, "AMPK": {"test_system": "AMPK", "assay": "AMPK activation assay (phospho-AMPK Thr172 western blot) in BV-2 cells", "type": "cell-based, murine", "conditions": "30 min", "method": "Effects of adenine on AMPK activation were evaluated based on the phosphorylation of AMPK protein upon adenine treatment. Mouse muscle cell C2C12, mouse fibroblast 3T3, human liver carcinoma cell Hep G2, human breast adenocarcinoma cell line MCF7 and human colon adenocarcinoma grade II cell line HT29, human umbilical vein endothelial cell HUVEC, Human acute monocytic leukemiacell THP1, human macrophage cell U937, murine microglia cell BV-2, and mouse neuroblastoma cell Neuro2A and dermal papilla cell were cultured in high-glucose Dulbecco's modified Eagle's medium (DMEM) containing 10% fetal bovine serum (FBS), 4 mM L-glutamine, 2 mM sodium pyruvate and 1% penicillin/streptomycin (Invitrogen GibcoBRL, Carlsbad, Calif., USA) at 37°C, under 5% CO2. Cells were plated at 3 × 10^5 per well in 6-well plates. Twenty-four hours after plating, adenine was added to the culture media as indicated. After 30 min cells were lysed and subject to western blot analysis. Equal amount of protein from each sample was separated by SDS-PAGE and then electroblotted on to PVDF membranes. Membranes were blocked with 3% BSA in PBS for 60 min and incubated with an anti-phospho-AMPK (Thr172) antibody (1:2,000, Cell signaling) or an anti-AMPK antibody (1:2,000, Cell signaling) at 4°C for 16 h followed by the corresponding secondary antibody for 1 h at room temperature (RT). Immunoreactive bands were detected by enhanced chemiluminescence and recorded using Kodak film. The detected signals were scanned and then quantified using TotalLab Quant software (TotalLab)."}}}
{"smiles": "Nc1ncnc2nc[nH]c12", "note": "[Adenine, adenine]", "values": [{"measurement": "time to find platform (hidden platform test)", "setting": "Aβ infusion mice; dose-dependent", "result": "significantly shorter time"}, {"measurement": "percentage time in target quadrant (probe assay)", "setting": "Aβ infusion mice", "result": "higher percentage time"}, {"measurement": "AMPK activation (fold to control)", "setting": "AMPK; adenine 1 microM", "result": "1.2 fold to control"}, {"measurement": "AMPK activation (fold to control)", "setting": "AMPK; adenine 10 microM", "result": "1.7 fold to control"}, {"measurement": "AMPK activation (fold to control)", "setting": "AMPK; adenine 40 microM", "result": "2.6 fold to control"}, {"measurement": "AMPK activation (fold to control)", "setting": "AMPK; adenine 160 microM", "result": "3.2 fold to control"}]}
